We go through four compounds from patent publication US11566007B2, “Ras inhibitors” (Revolution Medicines, Inc., priority 2019, dated 2023).

One experiment concerns the target KRAS G12V (Homo sapiens (Human), UniProt P01116+P62937, G12V). The experiment is described as follows: Ras-Raf (BRAF RBD) disruption / FRET / MOA assay, KRAS G12V. The class given is biochemical. The note with it: read-out: IC50* KRAS G12V FRET data. Put shortly: (§1)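 A 10-point, 3-fold dilution series topping at 30 μM final was incubated 3 h at 25° C with the Ras/cyclophilin A/BRAF RBD mixture.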

The target of a further experiment is KRAS Q61H (Homo sapiens (Human), UniProt P01116+P62937, Q61H). The experiment is described as follows: Ras-Raf (BRAF RBD) disruption / FRET / MOA assay, KRAS Q61H. The class given is biochemical. Conditions: class symbols. The gist of the method: (§2)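 Compounds (30 μM top final, 10-point 3-fold dilutions) incubated 3 h at 25° C with nucleotide-loaded Ras, cyclophilin A and BRAF RBD. Detection with 10 nM anti-His Eu-W1024 and 50 nM anti-GST allophycocyanin over another 1.5 h. Lowered TR-FRET ratio relative to DMSO wells gives IC50.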
KRAS Q61H, sequence (P01116-2 other isoform, or with tags, fused parts or gaps Q61H): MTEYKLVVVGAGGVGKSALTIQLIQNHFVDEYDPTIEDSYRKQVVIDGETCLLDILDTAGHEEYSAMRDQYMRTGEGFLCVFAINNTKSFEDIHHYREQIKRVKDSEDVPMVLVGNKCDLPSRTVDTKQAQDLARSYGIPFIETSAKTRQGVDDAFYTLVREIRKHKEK
KRAS Q61H, sequence (P62937 whole entry): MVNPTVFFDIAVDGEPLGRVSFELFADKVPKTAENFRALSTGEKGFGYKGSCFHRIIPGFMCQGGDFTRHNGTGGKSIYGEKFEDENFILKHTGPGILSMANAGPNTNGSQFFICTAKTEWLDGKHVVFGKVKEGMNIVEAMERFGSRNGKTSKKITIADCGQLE

In a further experiment the target is KRAS G12D (Homo sapiens (Human), UniProt P01116+P62937, G12D). The experiment can be described thus: Ras-Raf (BRAF RBD) disruption / FRET / MOA assay, KRAS G12D. The class given is biochemical. The note with it: Ras-Raf disruption/FRET/MOA assay; class symbols; read-out: KRAS G12D FRET data IC50. Put shortly: as §1
KRAS G12D, sequence (P01116-2 other isoform, or with tags, fused parts or gaps G12D): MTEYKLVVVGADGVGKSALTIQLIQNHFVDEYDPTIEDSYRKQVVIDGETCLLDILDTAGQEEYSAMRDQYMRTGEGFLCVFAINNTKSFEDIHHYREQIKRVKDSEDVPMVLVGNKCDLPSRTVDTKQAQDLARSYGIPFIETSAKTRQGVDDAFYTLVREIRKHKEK
KRAS G12D, sequence (P62937 whole entry): as the sequence (P62937 whole entry) above
Another experiment addresses NRAS G12C (Homo sapiens (Human), UniProt P01111+P62937, G12C). The experiment can be described thus: Ras-Raf (BRAF RBD) disruption / FRET / MOA assay, NRAS G12C. It counts as biochemical. Put shortly:
as §1

In another experiment the target is KRAS WT (Homo sapiens (Human), UniProt P01116+P62937). The experiment is described as follows: Ras-Raf (BRAF RBD) disruption / FRET / MOA assay, KRAS WT. The note with it: read-out: IC50* KRAS WT FRET data. It counts as biochemical. Put shortly: as §1
KRAS WT, sequence (P01116-2 other isoform, or with tags, fused parts or gaps): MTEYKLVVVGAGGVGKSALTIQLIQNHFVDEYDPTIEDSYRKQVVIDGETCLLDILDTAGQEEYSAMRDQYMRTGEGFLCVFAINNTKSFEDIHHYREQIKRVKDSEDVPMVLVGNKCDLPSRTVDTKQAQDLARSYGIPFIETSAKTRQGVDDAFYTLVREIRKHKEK
KRAS WT, sequence (P62937 whole entry): as the sequence (P62937 whole entry) above
Another experiment concerns the target NRAS Q61K (Homo sapiens (Human), UniProt P01111+P62937, Q61K). The experiment can be described thus: Ras-Raf (BRAF RBD) disruption / FRET / MOA assay, NRAS Q61K. It counts as biochemical. Put shortly:
as §2

The next experiment concerns the target NRAS WT (Homo sapiens (Human), UniProt P01111+P62937). The experiment is described as follows: Ras-Raf (BRAF RBD) disruption / FRET / MOA assay, NRAS WT. The class given is biochemical. The gist of the method:
as §2

Another experiment concerns NCI-H358 (K-Ras G12C). The experiment is described as follows: CellTiter-Glo cell viability assay, NCI-H358. The class given is cell-based, human. The note with it: Homo sapiens, NCI-H358, 120 h, class symbols. Put shortly:
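Compounds were dispensed directly onto K-Ras mutant cells and incubated until day 5, then plates were equilibrated to room temperature for about 30 minutes before CellTiter-Glo luminescence. Signals were normalized as (sample/average DMSO)*100 and fitted by four-parameter logistic fit.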

Another experiment has as its target K-Ras G13C (Homo sapiens (Human), UniProt P01116+P62937, G13C). The experiment can be described thus: Ras-Raf (BRAF RBD) disruption / FRET / MOA assay, KRAS G13C. It counts as biochemical. Conditions: KRAS G13C; Ras-Raf disruption/FRET/MOA assay; read-out: IC50* KRAS G13C FRET data. The gist of the method: as §1
The target of a further experiment is KRAS G13D (Homo sapiens (Human), UniProt P01116+P62937, G13D). The experiment is described as follows: Ras-Raf (BRAF RBD) disruption / FRET / MOA assay, KRAS G13D. The class given is biochemical. Put shortly: as §1
KRAS G13D, sequence (P01116-2 other isoform, or with tags, fused parts or gaps G13D): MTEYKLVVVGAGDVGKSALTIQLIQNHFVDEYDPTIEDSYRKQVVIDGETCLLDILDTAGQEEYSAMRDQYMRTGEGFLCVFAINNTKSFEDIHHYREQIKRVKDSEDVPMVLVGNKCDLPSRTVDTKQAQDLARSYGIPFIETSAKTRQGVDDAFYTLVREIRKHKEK
KRAS G13D, sequence (P62937 whole entry): as the sequence (P62937 whole entry) above
The next experiment addresses KRAS G12S (Homo sapiens (Human), UniProt P01116+P62937, G12S). The experiment can be described thus: Ras-Raf (BRAF RBD) disruption / FRET / MOA assay, KRAS G12S. It counts as biochemical. The note with it: Ras-Raf disruption/FRET/MOA assay; class symbols; read-out: KRAS G12S FRET data IC50. The gist of the method: as §1
Another experiment concerns the target NRAS Q61R (Homo sapiens (Human), UniProt P01111+P62937, Q61R). The experiment is described as follows: Ras-Raf (BRAF RBD) disruption / FRET / MOA assay, NRAS Q61R. The class given is biochemical. The gist of the method:
as §2

The mark [1] stands for this setting: Ras-Raf disruption/FRET/MOA assay, read-out: KRAS Q61H FRET data IC50.
Setting [2] is: read-out: IC50* NRAS G12C FRET data.
The mark [3] stands for this setting: NRAS Q61K, Ras-Raf disruption/FRET/MOA assay, read-out: IC50* NRAS Q61K FRET data.
Setting [4] is: read-out: IC50* NRAS WT FRET data.
[5] abbreviates: NCI-H358, 5-day treatment, read-out: Additional H358 Cell Viability assay data (K-Ras G12C, IC50).
Where [6] appears, read: read-out: IC50* KRAS G13D FRET data.
[7] abbreviates: NRAS Q61R, Ras-Raf disruption/FRET/MOA assay, read-out: IC50* NRAS Q61R FRET data.

Where two headings read alike, the source gives them in different places. A value given as a limit tells only on which side of the number the result lay.

NRAS Q61K, sequence (P01111 whole entry Q61K): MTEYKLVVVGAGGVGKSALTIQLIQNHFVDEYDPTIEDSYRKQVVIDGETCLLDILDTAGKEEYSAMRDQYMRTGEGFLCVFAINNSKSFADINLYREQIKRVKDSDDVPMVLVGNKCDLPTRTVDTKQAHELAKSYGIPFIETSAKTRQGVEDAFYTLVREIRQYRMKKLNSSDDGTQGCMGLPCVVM
NRAS Q61K, sequence (P62937 whole entry): as the sequence (P62937 whole entry) above
NRAS WT, sequence (P01111 whole entry): as the sequence (P01111 whole entry Q61K) above, with K61Q counted along it
NRAS WT, sequence (P62937 whole entry): as the sequence (P62937 whole entry) above
KRAS G12S, sequence (P01116-2 other isoform, or with tags, fused parts or gaps G12S): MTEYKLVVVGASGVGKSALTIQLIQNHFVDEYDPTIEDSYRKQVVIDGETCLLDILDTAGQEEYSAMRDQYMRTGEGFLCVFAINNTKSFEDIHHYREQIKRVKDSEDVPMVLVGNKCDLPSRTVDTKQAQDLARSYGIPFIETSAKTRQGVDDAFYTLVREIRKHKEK
KRAS G12S, sequence (P62937 whole entry): as the sequence (P62937 whole entry) above
NRAS G12C, sequence (P01111 whole entry G12C): as the sequence (P01111 whole entry Q61K) above, with G12C, K61Q counted along it
NRAS G12C, sequence (P62937 whole entry): as the sequence (P62937 whole entry) above
KRAS G12V, sequence (P01116-2 other isoform, or with tags, fused parts or gaps G12V): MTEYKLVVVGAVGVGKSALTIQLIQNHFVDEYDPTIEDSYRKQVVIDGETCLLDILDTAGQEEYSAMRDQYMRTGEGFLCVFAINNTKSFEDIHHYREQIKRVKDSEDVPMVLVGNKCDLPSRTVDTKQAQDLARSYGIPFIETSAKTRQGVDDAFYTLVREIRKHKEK
KRAS G12V, sequence (P62937 whole entry): as the sequence (P62937 whole entry) above
K-Ras G13C, sequence (P01116-2 other isoform, or with tags, fused parts or gaps G13C): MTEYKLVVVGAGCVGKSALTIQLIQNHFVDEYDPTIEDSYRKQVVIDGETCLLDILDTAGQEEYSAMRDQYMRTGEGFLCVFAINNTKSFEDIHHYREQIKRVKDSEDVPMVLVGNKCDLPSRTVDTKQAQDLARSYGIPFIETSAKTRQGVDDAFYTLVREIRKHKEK
K-Ras G13C, sequence (P62937 whole entry): as the sequence (P62937 whole entry) above
NRAS Q61R, sequence (P01111 whole entry Q61R): as the sequence (P01111 whole entry Q61K) above, with K61R counted along it
NRAS Q61R, sequence (P62937 whole entry): as the sequence (P62937 whole entry) above

`CCn1c(-c2cccnc2[C@H](C)OC)c2c3cc(ccc31)-c1cccc(c1)C[C@H](NC(=O)[C@H](C(C)C)N1CC[C@]3(CCN(C(=O)C#CC(C)(C)N(C)C)C3)C1=O)C(=O)N1CCC[C@H](N1)C(=O)OCC(C)(C)C2` (atropisomer, axis not shown) [Example A534, (2S)-2-((S)-7-(4-(dimethylamino)-4-methylpent-2-ynoyl)-1-oxo-2,7-diazaspiro[4.4]nonan-2-yl)-N-((6^3S,4S)-1^1-ethyl-1^2-(2-((S)-1-methoxyethyl)pyridin-3-yl)-10,10-dimethyl-5,7-dioxo-6^1,6^2,6^3,6^4,6^5,6^6-hexahydro-1^1H-8-oxa-1(5,3)-indola-6(1,3)-pyridazina-2(1,3)-benzenacycloundecaphane-4-yl)-3-methylbutanamide]: the IC50 on KRAS G12V is 1000 to 10000 nM; on KRAS Q61H (setting [1]), 100 to 1000 nM; on KRAS G12D it was 1000 to 10000 nM; on NRAS G12C (setting [2]), less than 10 nM; on KRAS WT, 1000 to 10000 nM; at NRAS Q61K (setting [3]), 1000 to 10000 nM. Besides, the IC50 was 1000 to 10000 nM at NRAS WT (setting [4]); less than 0.01 µM in the experiment with NCI-H358 (K-Ras G12C) (setting [5]); 100 to 1000 nM on K-Ras G13C; 1000 to 10000 nM on KRAS G13D (setting [6]); 1000 to 10000 nM on KRAS G12S; 1000 to 10000 nM on NRAS Q61R (setting [7]).

Consider `CCn1c(-c2cccnc2[C@H](C)OC)c2c3cc(ccc31)-c1cccc(c1)C[C@H](NC(=O)[C@H](C(C)C)N1CC[C@@]3(CCN(C(=O)C#C[C@@H]4COCCN4C)C3)C1=O)C(=O)N1CCC[C@H](N1)C(=O)OCC(C)(C)C2` (atropisomer, axis not shown) [Example A549], for which the IC50 at KRAS G12V is 1000 to 10000 nM; against KRAS Q61H (KRAS Q61H FRET data IC50, Ras-Raf disruption/FRET/MOA assay) it was 100 to 1000 nM; at KRAS G12D, greater than 10000 nM; against NRAS G12C (IC50* NRAS G12C FRET data) it was 10 to 100 nM; on KRAS WT, 1000 to 10000 nM; against NRAS Q61K, 1000 to 10000 nM. The IC50 against NRAS WT (IC50* NRAS WT FRET data) was 1000 to 10000 nM; with NCI-H358 (K-Ras G12C) (read-out: Additional H358 Cell Viability assay data (K-Ras G12C, IC50, uM), NCI-H358, 5-day treatment), less than 0.01 µM; on K-Ras G13C, 100 to 1000 nM; against KRAS G13D (IC50* KRAS G13D FRET data), 1000 to 10000 nM; on KRAS G12S, 1000 to 10000 nM; against NRAS Q61R, 1000 to 10000 nM.

Regarding `CCn1c(-c2cccnc2[C@H](C)OC)c2c3cc(ccc31)-c1cccc(c1)C[C@H](NC(=O)[C@@H](COC1CN(C(=O)C#CC(C)(C)N(C)C(C)C)C1)C(C)C)C(=O)N1CCC[C@H](N1)C(=O)OCC(C)(C)C2` (atropisomer, axis not shown) [Example A599], the IC50 on KRAS G12V is 1000 to 10000 nM; at KRAS Q61H (setting [1]), greater than 10000 nM; at KRAS G12D it was greater than 10000 nM; at NRAS G12C (setting [2]) it was 10 to 100 nM; on KRAS WT, greater than 10000 nM; on NRAS Q61K (setting [3]), greater than 10000 nM. For the same compound, the half-inhibitory concentration (IC50) was greater than 10000 nM at NRAS WT (setting [4]); less than 0.01 µM in the experiment with NCI-H358 (K-Ras G12C) (setting [5]); 1000 to 10000 nM on K-Ras G13C; greater than 10000 nM at KRAS G13D (setting [6]); greater than 10000 nM on KRAS G12S; greater than 10000 nM on NRAS Q61R (setting [7]).

Turning to `CO[C@@H](C)c1ncccc1-c1c2c3cc(ccc3n1CC(F)(F)F)-c1csc(n1)C[C@H](NC(=O)[C@H](C(C)C)N(C)C(=O)N1CCC3(CC1)CN(C(=O)/C=C/CF)C3)C(=O)N1CCC[C@H](N1)C(=O)OCC(C)(C)C2` (atropisomer, axis not shown) [Example A602], the IC50 lay in the range of 10 to 100 nM at KRAS G12V; 10 to 100 nM at KRAS Q61H (setting [1]); 100 to 1000 nM on KRAS G12D; 10 to 100 nM at NRAS G12C (setting [2]); 10 to 100 nM at KRAS WT; 10 to 100 nM at NRAS Q61K (setting [3]). For the same compound, the IC50 at NRAS WT (setting [4]) is 10 to 100 nM; with NCI-H358 (K-Ras G12C) (setting [5]), less than 0.01 µM; on K-Ras G13C, 10 to 100 nM; at KRAS G13D (setting [6]) it was 100 to 1000 nM; on KRAS G12S it was 10 to 100 nM; at NRAS Q61R (setting [7]), 10 to 100 nM.
